Test system: MV4;11 AML xenografts
Assay: luc-labeled MV4;11 AML cell line xenograft
Type: in vivo, NRG mice
Conditions: MV4;11 xenograft, 15 mg/kg/d PO, 5 days on, 9 days off, 5 cycles
From the text: Immunodeficient NOD-Rag1^nullIL2rg^null (NRG) mice were purchased from Jackson Laboratory (Bar Harbor, ME), bred and housed at the University of Maryland Baltimore. Similar to our previous publication ([20]). mice were transplanted IV with luc-labeled human AML cell lines or cryopreserved AML patient cells on day -10, and baseline total body luminescence was quantified on day 0 by Xenogen bioluminescence imaging (Xenogen IVIS Spectrum; PerkinElmer, Waltham, MA). Mice were allocated to treatment groups so that each group had similar average day 0 luminescence, then groups were administered drugs per oral (PO; gavage). Luminescence of each mouse was assessed over time and compared with that mouse’s day 0 luminescence (fold-change AML burden). Clinical behavior, appearance, weight, and survival were also monitored.
Using our previously determined 5-day MTD SAV drug schedule (i.e. 5-day treatment cycles consisting of 15 mg/kg/d ART631 combined with 150 mg/kg/d VEN and 30 mg/kg/d SOR, followed by 9 days off drug; schematic in Figure 7A ), we assessed treatment of established human luc-labeled MV4;11 ( Figures 7B–D ) and MOLM14 AML ( Figures 8A–C ) cell line xenografts with VEN plus SOR plus ART631 in NRG mice ( Figures 7B , 8A ). […]

C=CCO/N=C(/C[C@H]1O[C@@H]2O[C@@]3(C)CC[C@H]4[C@H](C)CC[C@@H]([C@H]1C)[C@@]24OO3)[C@H]1O[C@@H]2O[C@@]3(C)CC[C@H]4[C@H](C)CC[C@@H]([C@H]1C)[C@@]24OO3 [ART631]
antileukemic activity of monotherapy: no activity

— paper PMC8811960, “A Novel 2-Carbon-Linked Dimeric Artemisinin With Potent Antileukemic Activity and Favorable Pharmacology” (Frontiers in Oncology, 2022)
